In patent publication US10106542B2, “Substituted 6,7-dihydropyrazolo[1,5-a]pyrazines as negative allosteric modulators of mGluR2 receptors” (Janssen Pharmaceutica NV, priority 2013, dated 2018):

Target: T1, human mGlu2 receptor (Homo sapiens, UniProt Q14416)
T1 construct: expressed in transfected cells; host or cells: CHO cells (membrane preparation)
Assay: [35S]GTPγS binding assay (mGluR2 negative allosteric modulation)
Format: biochemical
Conditions: for IC50: read-out: GTPγS - hmGluR2 anGT pIC50 (converted); for GTPγS - hmGluR2 anGT Emax / Emax: relative maximal effect: maximal % inhibition relative to the control glutamate response; for Emax: read-out: GTPγS - hmGluR2 anGT Emax
Protocol: 1) [^35S]GTPγS binding assay
The [^35S]GTPγS binding assay is a functional membrane-based assay used to study G-protein coupled receptor (GPCR) function whereby incorporation of a non-hydrolysable form of GTP, [^35S]GTPγS (guanosine 5′-triphosphate, labelled with […] ^35S), is measured. The G-protein a subunit catalyzes the exchange of guanosine 5′-diphosphate (GDP) by guanosine triphosphate (GTP) and on activation of the GPCR by an agonist, [^35S]GTPγS, becomes incorporated and cannot be cleaved to continue the exchange cycle (Harper (1998) Current Protocols in Pharmacology 2.6.1-10, John Wiley & Sons, Inc.). […] Here we describe the use of the [^35S]GTPγS binding assay using membranes from cells transfected with the human mGlu2 receptor and adapted from Schaffhauser et al. (Molecular Pharmacology, 2003, […]) for the detection of the negative allosteric modulation (NAM) properties of the compounds of this invention.
CHO-cells were cultured to pre-confluence and stimulated with 5 mM butyrate for 24 h. Cells were then collected by scraping in PBS and cell suspension was centrifuged (10 min at 4000 RPM in benchtop centrifuge). Supernatant was discarded and pellet gently resuspended in 50 mM Tris-HCl, pH 7.4 by mixing with an Ultra Turrax homogenizer. The suspension was centrifuged at 12,400 RPM (Sorvall F14S-6x250Y) for 10 minutes and the supernatant discarded. The pellet was homogenized in 5 mM Tris-HCl, pH 7.4 using an Ultra Turrax homogenizer and centrifuged again (13,000 RPM, 20 min, 4° C.). The final pellet was resuspended in 50 mM Tris-HCl, pH 7.4 and stored at −80° C. in appropriate aliquots before use. Protein concentration was determined by the Bradford method (Bio-Rad, USA) with bovine serum albumin as standard.
Measurement of mGluR2 negative allosteric modulatory activity of test compounds was performed as follows. Test compounds and glutamate were diluted in assay buffer containing 10 mM HEPES acid, 10 mM HEPES salt, pH 7.4, 100 mM NaCl, 3 mM MgCl2 and 10 μM GDP. Human mGlu2 receptor-containing membranes were thawed on ice and diluted in assay buffer supplemented with 18 μg/ml saponin. […] After addition of [^35S]GTPγS (f.c. 0.1 nM), assay mixtures were shaken briefly and further incubated to allow [^35S]GTPγS incorporation on activation (30 minutes, 30° C.). Final assay mixtures contained 7 μg of membrane protein in 10 mM HEPES acid, 10 mM HEPES salt, pH 7.4, 100 mM NaCl, 3 mM MgCl2, 10 μM GDP and 10 μg/ml saponin. Total reaction volume was 200 μl. Reactions were terminated by rapid filtration through Unifilter-96 GF/B plates (Perkin Elmer, Massachusetts, USA) using a 96-well filtermate universal harvester. Filters were washed 6 times with ice-cold 10 mM NaH2PO4/10 mM Na2HPO4, pH 7.4. Filters were then air-dried, and 30 μl of liquid scintillation cocktail (Microscint-O) was added to each well. Membrane-bound radioactivity was counted in a Topcount.
The concentration-response curves of representative compounds of the present invention were generated using the Lexis software interface (developed at J&J). Data were calculated as % of the control glutamate response, defined as the response that is generated upon addition of an EC80-equivalent concentration of glutamate.

[1] = membranes from CHO cells transfected with human mGlu2 receptor, glutamate 60 μM, pIC50 = −log IC50 (M)

T1 sequence (Q14416 19-872): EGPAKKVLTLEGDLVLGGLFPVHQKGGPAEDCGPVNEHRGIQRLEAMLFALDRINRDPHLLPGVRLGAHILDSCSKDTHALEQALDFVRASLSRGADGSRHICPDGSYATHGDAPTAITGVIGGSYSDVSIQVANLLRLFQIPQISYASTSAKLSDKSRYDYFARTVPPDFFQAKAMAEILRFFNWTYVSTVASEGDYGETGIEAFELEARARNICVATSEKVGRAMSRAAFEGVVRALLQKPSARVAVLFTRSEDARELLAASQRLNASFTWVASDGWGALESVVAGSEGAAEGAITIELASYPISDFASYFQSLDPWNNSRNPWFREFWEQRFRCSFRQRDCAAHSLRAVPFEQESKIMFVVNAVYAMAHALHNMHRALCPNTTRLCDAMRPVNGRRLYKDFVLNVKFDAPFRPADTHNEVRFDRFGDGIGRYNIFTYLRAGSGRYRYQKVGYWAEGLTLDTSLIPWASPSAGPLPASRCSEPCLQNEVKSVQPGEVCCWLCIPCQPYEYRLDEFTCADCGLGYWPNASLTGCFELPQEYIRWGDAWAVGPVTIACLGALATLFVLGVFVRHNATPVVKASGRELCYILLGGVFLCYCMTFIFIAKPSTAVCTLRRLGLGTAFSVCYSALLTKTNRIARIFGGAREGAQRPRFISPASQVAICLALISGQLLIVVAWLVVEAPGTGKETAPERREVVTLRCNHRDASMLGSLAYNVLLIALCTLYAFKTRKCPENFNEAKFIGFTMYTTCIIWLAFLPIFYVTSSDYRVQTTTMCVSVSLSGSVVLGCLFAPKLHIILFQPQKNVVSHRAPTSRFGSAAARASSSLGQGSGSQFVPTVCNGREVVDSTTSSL

Row | Structure (SMILES) | IC50 [1] | GTPγS - hmGluR2 anGT Emax | Emax | GTPγS - hmGluR2 anGT pIC50 [1]
1 | Cc1cc(-c2cnn3c2C(=O)N(c2ccc(Cl)c(Cl)c2)CC3CF)ccn1 (single isomer, unassigned) [compound 116] | 5.62e-07 M | 105% | – | –
2 | Cc1cc(-c2cnn3c2C(=O)N(c2ccc(C(F)(F)F)cn2)CC3)ccn1 [compound 211] | 3.72e-06 M | – | 92% | –
3 | C[C@H]1CN(c2ccc(C(F)(F)F)c(Cl)c2)C(=O)c2c(-c3ccnc(N4CCC4)c3)cnn21 [compound 96] | 1.23e-09 M | – | 108% | –
4 | COc1nc(N2C[C@H](C)n3ncc(-c4ccnc(N5CCC5)c4)c3C2=O)ccc1C(F)(F)F [compound 209] | 6.46e-09 M | – | 104% | –
5 | CCN(C)c1cc(-c2cnn3c2C(=O)N(c2ccc(C(F)(F)F)c(Cl)c2)C[C@@H]3C)ccn1 [compound 254] | 1.7e-09 M | – | 109% | –
6 | C[C@H]1CN(c2ccc(Cl)c(Cl)c2)C(=O)c2c(-c3ccnc(CF)c3)cnn21 [compound 117] | 7.59e-09 M | – | 109% | –
7 | CCC1CN(c2ccc(C(F)(F)F)cc2)C(=O)c2c(-c3ccnc(C)c3)cnn21 (stereo not shown) [compound 70] | – | – | 106% | 7.1
8 | C[C@H]1CN(c2ccc(C(F)(F)F)cc2)C(=O)c2c(-c3ccnc(F)c3)cnn21 [compound 247] | 3.02e-08 M | – | 109% | –
9 | C[C@H]1CN(c2ccc(C(F)(F)F)cn2)C(=O)c2c(-c3ccncc3)cnn21 [compound 190] | 2.09e-07 M | – | 105% | –
10 | C[C@H]1CN(c2ccc(C(F)(F)F)cc2)C(=O)c2c(-c3ccnc(C4CC4)c3)cnn21 [compound 173] | 4.37e-09 M | – | 106% | –
11 | C[C@H]1CN(c2ccc(Cl)c(Cl)c2)C(=O)c2c(-c3ccnc(N4CCC4)c3)cnn21 [compound 97] | 1.66e-09 M | – | 104% | –
12 | CNc1cc(-c2cnn3c2C(=O)N(c2ccc(C(F)(F)F)cc2)C[C@@H]3C)cc(C)n1 [compound 241] | 1.82e-08 M | – | 109% | –
13 | COc1nc(N2C[C@H](C)n3ncc(-c4ccnc(N(C)C)c4)c3C2=O)ccc1C(F)(F)F [compound 250] | 3.98e-09 M | – | 120% | –
14 | C[C@H]1CN(c2ccc(C(F)(F)F)cc2)C(=O)c2c(-c3cccnc3)cnn21 [compound 32] | 5.62e-07 M | – | 101% | –
15 | CC(=O)N1CCN(c2cc(-c3cnn4c3C(=O)N(c3ccc(C(F)(F)F)cc3)C[C@@H]4C)ccn2)CC1 [compound 106, (7S)-3-[2-(4-Acetylpiperazin-1-yl)-4-pyridyl]-7-methyl-5-[4-(trifluoromethyl)phenyl]-6,7-dihydropyrazolo[1,5-a]pyrazin-4-one] | 6.03e-07 M | – | 109% | –
16 | C[C@H]1CN(c2ccc(Cl)c(Cl)c2)C(=O)c2c(-c3ccnc(C4CC4)c3)cnn21 [compound 122] | 3.72e-09 M | – | 108% | –
17 | Cc1cc(-c2cnn3c2C(=O)N(c2ccc(C(F)(F)F)c(C)n2)C[C@@H]3C)ccn1 [compound 192, (7S)-7-Methyl-3-(2-methyl-4-pyridyl)-5-[6-methyl-5-(trifluoromethyl)-2-pyridyl]-6,7-dihydropyrazolo[1,5-a]pyrazin-4-one] | 7.41e-09 M | – | 106% | –
18 | CCOc1ccc(C(F)(F)F)c(N2C[C@H](C)n3ncc(-c4ccnc(C)c4)c3C2=O)n1 [compound 199] | 2.57e-05 M | – | 67% | –
19 | Cc1cc(-c2cnn3c2C(=O)N(c2ccc(C(F)(F)F)cn2)C[C@@H]3C)cc(C)n1 [compound 194] | 1.38e-07 M | – | 107% | –
20 | C[C@H]1CN(c2ccc(C(F)(F)F)c(Cl)c2)C(=O)c2c(-c3ccnc(CF)c3)cnn21 [compound 265] | 5.5e-09 M | – | 111% | –
21 | Cc1cc(-c2cnn3c2C(=O)N(c2ccc(Cl)c(Cl)c2)C[C@@H]3C)cc[n+]1[O-] [compound 170, (7S)-5-(3,4-dichlorophenyl)-7-methyl-3-(2-methyl-1-oxido-pyridin-1-ium-4-yl)-6,7-dihydropyrazolo[1,5-a]pyrazin-4-one] | 7.24e-08 M | – | 107% | –
22 | CCOc1cc(-c2cnn3c2C(=O)N(c2ccc(Cl)c(Cl)c2)C[C@@H]3C)ccn1 [compound 133] | 8.32e-09 M | – | 104% | –
23 | CC(C)Oc1cc(-c2cnn3c2C(=O)N(c2ccc(Cl)c(Cl)c2)C[C@@H]3C)ccn1 [compound 137] | 1.82e-08 M | – | 107% | –
24 | COCC1CN(c2ccc(C(F)(F)F)cc2)C(=O)c2c(-c3ccnc(C)c3)cnn21 (single isomer, unassigned) [compound 121] | 1.62e-05 M | 75% | – | –
25 | CNc1cc(-c2cnn3c2C(=O)N(c2ccc(Cl)c(Cl)c2)CC3CF)ccn1 (single isomer, unassigned) [compound 185] | 6.03e-09 M | 104% | – | –
26 | Cc1cc(-c2cnn3c2C(=O)N(c2ccc(Cl)cc2Cl)CC3)ccn1 [compound 244] | 8.71e-06 M | – | 80% | –
27 | Cc1cc(-c2cnn3c2C(=O)N(c2ccc(C(F)(F)F)cc2)CC3C(F)(F)F)ccn1 (stereo not shown) [compound 238, 3-(2-Methyl-4-pyridyl)-7-(trifluoromethyl)-5-[4-(trifluoromethyl)phenyl]-6,7-dihydropyrazolo[1,5-a]pyrazin-4-one] | 2.14e-06 M | – | 103% | –
28 | Cc1cc(-c2cnn3c2C(=O)N(c2ccc(OC(C)C(F)(F)F)cc2)C[C@@H]3C)ccn1 (stereo partly shown) [compound 165] | 1.95e-08 M | – | 102% | –

Further lines, results first:

Row | IC50 [1] | GTPγS - hmGluR2 anGT Emax | Emax | GTPγS - hmGluR2 anGT pIC50 [1] | Structure (SMILES)
29 | 2.19e-08 M | – | 107% | – | Cc1cc(-c2cnn3c2C(=O)N(c2cccc(OC(F)(F)F)c2)C[C@@H]3C)ccn1 [compound 58]
30 | 8.71e-08 M | – | 104% | – | COc1ccc(N2C[C@H](C)n3ncc(-c4ccnc(C)c4)c3C2=O)cc1Cl [compound 20]
31 | 2.82e-07 M | – | 100% | – | Cc1cc(-c2cnn3c2C(=O)N(c2ccc(C)c(F)c2)C[C@@H]3C)ccn1 [compound 76]
32 | 4.07e-06 M | – | 92% | – | CCOc1ccc(Cl)c(N2C[C@H](C)n3ncc(-c4ccnc(C)c4)c3C2=O)n1 [compound 195]
33 | 4.07e-08 M | – | 107% | – | CCCc1ccc(N2C[C@H](C)n3ncc(-c4ccnc(C)c4)c3C2=O)cc1 [compound 66]
34 | 1.55e-05 M | – | 76% | – | COc1cc(Cl)ccc1N1C[C@H](C)n2ncc(-c3ccnc(C)c3)c2C1=O [compound 161]
35 | 6.31e-08 M | – | 104% | – | Cc1cc(-c2cnn3c2C(=O)N(c2ccc(F)c(C(F)(F)F)c2)C[C@@H]3C)ccn1 [compound 67, (7S)-5-[4-Fluoro-3-(trifluoromethyl)phenyl]-7-methyl-3-(2-methyl-4-pyridyl)-6,7-dihydropyrazolo[1,5-a]pyrazin-4-one]
36 | 3.63e-08 M | – | 106% | – | Cc1cc(-c2cnn3c2C(=O)N(c2ccc(Br)cc2)C[C@@H]3C)ccn1 [compound 139]
37 | 1.45e-07 M | – | 103% | – | Cc1cc(-c2cnn3c2C(=O)N(c2ccc(F)c(F)c2)C[C@@H]3C)ccn1 [compound 25]
38 | > 5.01e-05 M | – | 49% | – | Cc1cc(-c2cnn3c2C(=O)N(c2ccc(C(C)O)cc2)C[C@@H]3C)ccn1 (stereo partly drawn) [compound 149, (7S)-5-[4-(1-Hydroxyethyl)phenyl]-7-methyl-3-(2-methyl-4-pyridyl)-6,7-dihydropyrazolo[1,5-a]pyrazin-4-one]
39 | 1.02e-08 M | – | 103% | – | Cc1cc(-c2cnn3c2C(=O)N(c2ccc(Cl)c(Cl)n2)C[C@@H]3C)ccn1 [compound 202]
40 | 2.4e-07 M | – | 105% | – | Cc1cc(-c2cnn3c2C(=O)N(c2ccc(F)cc2)C[C@@H]3C)ccn1 [compound 28]
41 | 5.37e-08 M | – | 103% | – | Cc1cc(-c2cnn3c2C(=O)N(c2cc(F)cc(OC(F)F)c2)C[C@@H]3C)ccn1 [compound 69]
